Legend:
Format in all cases: in vivo, human
[1] = system: Subjects Having Insomnia Disorder; assay: Example 2: wake after sleep onset (WASO), polysomnography; details: for Wake After Sleep Onset, Change from Study Baseline, LSM treatment difference: Lemborexant-Zolpidem / Wake After Sleep Onset, Change from Study Baseline, Mean (SD) / Wake After Sleep Onset, Change from Study Baseline, Median / Wake After Sleep Onset, Mean (SD) / Wake After Sleep Onset, Median: Days 29/30
Method: (§1) In some embodiments, a sleep parameter is determined objectively using polysomnography. Polysomnography is the monitoring of multiple electrophysiological parameters during sleep and generally includes measurement of EEG activity, electro-oculographic activity and electromyographic activity, as well as other measurements.
WASO—wake after sleep onset: minutes of wake from the onset of persistent sleep until lights on.
(§2) The treatment period lasted for 31 days. Subjects were randomized in a double-blind manner and received placebo, a tablet containing 5 mg of lemborexant, a tablet containing 10 mg of lemborexant, or a tablet containing 6.25 mg of zolpidem ER.
(§3) Within 5 minutes of the subject's mean habitual bedtime, study drug was administered and an overnight polysomnogram recording was initiated. At completion of the recording the following morning (Day 2), postural stability and cognitive performance were assessed. On the Day 2 evening, subjects returned to the clinic and a blood sample was collected before administering study drug, and then study drug was administered within 5 minutes of the subject's mean habitual bedtime. Again, a polysomnogram recording was initiated. The next morning (Day 3), postural stability and cognitive performance were assessed. A blood sample was also collected.
(§4) On Day 29, subjects returned to the clinic. Study drug was administered within 5 minutes of the subject's mean habitual bedtime and a polysomnogram recording was conducted. On the following morning (Day 30), postural stability and cognitive performance were assessed. After 1.5 hours of waketime, subjects rated their morning sleepiness level.
(§5) On the evening of Day 30, subjects returned to the clinic. A pre-dose blood sample was collected and study drug was again administered within 5 minutes of the subject's mean habitual bedtime. A polysomnogram recording was initiated. The following morning (Day 31), postural stability and cognitive performance were assessed and a blood sample was obtained. The ISI, FSS, EQ-5D-3L and PGI-Insomnia were administered. Blood and urine samples were collected for routine safety assessment. An electrocardiogram was performed, and vital signs and weight were assessed. The eC-SSRS was then administered to the subject. At 1.5 hours after waketime, subjects rated their morning sleepiness level.
Another key secondary endpoint was to determine the change from baseline for mean wake after sleep onset on Days 29 and 30 after administration of 5 mg or 10 mg of lemborexant, compared to placebo.

[2] = system: Subjects Having Insomnia Disorder; assay: Example 2: total sleep time (TST), polysomnography
Method: as §1
TST—total sleep time: minutes of sleep from sleep onset until terminal awakening.
as §2, §3, §4, §5

[3] = system: Subjects Having Insomnia Disorder; assay: Example 2: wake after sleep onset in the second half of the night (WASO2H), polysomnography
Method: as §1
WASO2H: wake after sleep onset in the second half of the night: minutes of wake during the interval from 240 minutes after lights off until lights on.
as §2, §3, §4, §5
Another key secondary endpoint was to determine the change from baseline for mean wake after sleep onset in the second half of the night on Days 29 and 30 after administration of 5 mg or 10 mg of lemborexant compared to administration of 6.25 mg of zolpidem ER.

Cc1ncc(OC[C@@]2(c3cccc(F)c3)C[C@H]2C(=O)Nc2ccc(F)cn2)c(C)n1 [Lemborexant, (1R,2S)-2-(((2,4-dimethylpyrimidin-5-yl)oxy)methyl)-2-(3-fluorophenyl)-N-(5-fluoropyridin-2-yl)cyclopropanecarboxamide]
Wake After Sleep Onset, Change from Study Baseline, LSM treatment difference: Lemborexant-Zolpidem ([1]; Lemborexant 5 mg): −7.72 (2.876)
Wake After Sleep Onset, Change from Study Baseline, Mean (SD) ([1]; Lemborexant 5 mg): −43.89 (39.264)
Wake After Sleep Onset, Change from Study Baseline, Median ([1]; Lemborexant 5 mg): −39.50
Wake After Sleep Onset, Mean (SD) ([1]; Lemborexant 5 mg): 69.10 (34.533)
Wake After Sleep Onset, Median ([1]; Lemborexant 5 mg): 62.63
Wake After Sleep Onset, Change from Study Baseline, LSM treatment difference: Lemborexant-Zolpidem ([1]; Lemborexant 10 mg): −9.10
Wake After Sleep Onset, Change from Study Baseline, Mean (SD) ([1]; Lemborexant 10 mg): −46.43
Wake After Sleep Onset, Change from Study Baseline, Median ([1]; Lemborexant 10 mg): −46.50
Wake After Sleep Onset, Mean (SD) ([1]; Lemborexant 10 mg): 68.60
Wake After Sleep Onset, Median ([1]; Lemborexant 10 mg): 62.50
mean wake after sleep onset ([1]; all lemborexant treatment groups, relative to baseline, placebo and zolpidem treatment groups (Table 15)): reduced
Total Sleep Time, Change from Study Baseline, Mean (SD) ([2]; Days 1/2, Lemborexant 5 mg): 65.22 (46.695)
Total Sleep Time, Change from Study Baseline, Median ([2]; Days 1/2, Lemborexant 5 mg): 59.50
Total Sleep Time, Mean (SD) ([2]; Days 1/2, Lemborexant 5 mg): 393.22 (40.346)
Total Sleep Time, Median ([2]; Days 1/2, Lemborexant 5 mg): 400.63
Total Sleep Time, Change from Study Baseline, Mean (SD) ([2]; Days 1/2, Lemborexant 10 mg): 79.58 (47.350)
Total Sleep Time, Change from Study Baseline, Median ([2]; Days 1/2, Lemborexant 10 mg): 74.25
Total Sleep Time, Mean (SD) ([2]; Days 1/2, Lemborexant 10 mg): 404.65 (36.593)
Total Sleep Time, Median ([2]; Days 1/2, Lemborexant 10 mg): 411.50
Total Sleep Time, Change from Study Baseline, LSM treatment difference: Lemborexant-Zolpidem ([2]; Days 29/30, Lemborexant 5 mg): 19.41 (3.457)
Total Sleep Time, Change from Study Baseline, Mean (SD) ([2]; Days 29/30, Lemborexant 5 mg): 61.99 (46.817)
Total Sleep Time, Change from Study Baseline, Median ([2]; Days 29/30, Lemborexant 5 mg): 56.50
Total Sleep Time, Mean (SD) ([2]; Days 29/30, Lemborexant 5 mg): 389.97 (42.437)
Total Sleep Time, Median ([2]; Days 29/30, Lemborexant 5 mg): 399.63
Total Sleep Time, Change from Study Baseline, LSM treatment difference: Lemborexant-Zolpidem ([2]; Days 29/30, Lemborexant 10 mg): 24.10 (3.456)
Total Sleep Time, Change from Study Baseline, Mean (SD) ([2]; Days 29/30, Lemborexant 10 mg): 67.86 (52.117)
Total Sleep Time, Change from Study Baseline, Median ([2]; Days 29/30, Lemborexant 10 mg): 65.13
Total Sleep Time, Mean (SD) ([2]; Days 29/30, Lemborexant 10 mg): 393.16 (42.827)
Total Sleep Time, Median ([2]; Days 29/30, Lemborexant 10 mg): 400.88
mean total sleep time ([2]; all lemborexant treatment groups, relative to baseline, placebo and zolpidem treatment groups (Table 17)): increased
Wake After Sleep Onset in the Second Half of the Night, Change from Study Baseline, Mean (SD) ([3]; Days 1/2, Lemborexant 5 mg): −30.28 (32.056)
Wake After Sleep Onset in the Second Half of the Night, Change from Study Baseline, Median ([3]; Days 1/2, Lemborexant 5 mg): −27.63
Wake After Sleep Onset in the Second Half of the Night, Mean (SD) ([3]; Days 1/2, Lemborexant 5 mg): 46.32 (25.600)
Wake After Sleep Onset in the Second Half of the Night, Median ([3]; Days 1/2, Lemborexant 5 mg): 40.88
Wake After Sleep Onset in the Second Half of the Night, Change from Study Baseline, Mean (SD) ([3]; Days 1/2, Lemborexant 10 mg): −37.10 (30.815)
Wake After Sleep Onset in the Second Half of the Night, Change from Study Baseline, Median ([3]; Days 1/2, Lemborexant 10 mg): −32.00
Wake After Sleep Onset in the Second Half of the Night, Mean (SD) ([3]; Days 1/2, Lemborexant 10 mg): 39.78 (23.709)
Wake After Sleep Onset in the Second Half of the Night, Median ([3]; Days 1/2, Lemborexant 10 mg): 34.00
Wake After Sleep Onset in the Second Half of the Night, Change from Study Baseline, LSM treatment difference: Lemborexant-Zolpidem ([3]; Days 29/30, Lemborexant 5 mg): −6.65 (2.298)
Wake After Sleep Onset in the Second Half of the Night, Change from Study Baseline, Mean (SD) ([3]; Days 29/30, Lemborexant 5 mg): −27.19 (33.047)
Wake After Sleep Onset in the Second Half of the Night, Change from Study Baseline, Median ([3]; Days 29/30, Lemborexant 5 mg): −25.63
Wake After Sleep Onset in the Second Half of the Night, Mean (SD) ([3]; Days 29/30, Lemborexant 5 mg): 49.11 (28.179)
Wake After Sleep Onset in the Second Half of the Night, Median ([3]; Days 29/30, Lemborexant 5 mg): 42.13
Wake After Sleep Onset in the Second Half of the Night, Change from Study Baseline, LSM treatment difference: Lemborexant-Zolpidem ([3]; Days 29/30, Lemborexant 10 mg): −8.00 (2.309)
Wake After Sleep Onset in the Second Half of the Night, Change from Study Baseline, Median ([3]; Days 29/30, Lemborexant 10 mg): −27.25
Wake After Sleep Onset in the Second Half of the Night, Mean (SD) ([3]; Days 29/30, Lemborexant 10 mg): 48.15 (27.844)
Wake After Sleep Onset in the Second Half of the Night, Median ([3]; Days 29/30, Lemborexant 10 mg): 41.75
mean wake after sleep onset in the second half of the night ([3]; all lemborexant treatment groups, relative to baseline, placebo and zolpidem treatment groups (Table 16)): reduced

Reference: patent US20220305012A1, “L[…] TREATING SLEEP ISSUES” (EISAI R&D MANAGEMENT CO., LTD., priority 2019, published 2022)
